Data on 20 compounds can be found in patent US9458120B2, “Phenoxypropanol derivative and pharmaceutical composition including the same” (KOREA INSTITUTE OF SCIENCE AND TECHNOLOGY, priority 2011, dated 2016).

The structures appear in SMILES notation.

For test [1], the target named is α1G T-type calcium channel (Homo sapiens, UniProt O43497). As to the kind of experiment: Assay for T-type calcium channel inhibition activity (FDSS6000 calcium imaging, KCl activation). The test is classed as cell-based. The following applies: 75 s pre-treatment then KCl 75 mM, HEK293 cells expressing α1G T-type calcium channel and Kir2.1. The procedure:
At 12-24 hours before the assay for T-type calcium channel activity, cells of HEK293 cell line (α1G cell line: KCTC 10519BP, GenBank, Korea Research Institute of Bioscience and Biotechnology) which stably express α1G T-type calcium channel and Kir2.1, were sub-cultured in a poly-L-lysine (0.05 mg/ml) treated 96-well plate with the density of 4×10^4 per a well using a 96-well cell dispenser (Titertek). On the day of assay, the 96-well plate to which the cells were attached were washed three times with a HEPES buffer solution (unit mM: 150 NaCl, 5 KCl, 1 MgCl2, 2 CaCl2, 10 HEPES, 10 glucose, pH 7.4) using a 96-well plate automatic washing device (Bio Tek), and then reacted with a HEPES buffer solution containing 5 μM fluo-3/AM and 0.001% (w/v) Pluronic F-127 at room temperature for 1 hour, to label with fluorescent dye, and then further washed twice with the HEPES buffer solution. Thereafter, at 10 minutes before the measurement using a FDSS6000 device, a washing with a HEPES buffer solution containing 10 mM CaCl2 was conducted once more, and the final volume was adjusted to 81 μl. Besides the above 96-well plate containing the cells, additional two 96-well drug plates were provided, in which the 96-well plates contained KCl (final concentration: 75 mM) for activating T-type calcium channel and a blocker drug, respectively.
Since most of cell-based HTS (High throughput screening) devices are equipped with a liquid application system for drug injection, but have no liquid sucking system, the blocker drug to be tested and KCl were respectively provided at the five-times higher concentration in 10 mM CaCl2 HEPES buffer solution at the amount of 27 μl, diluted five-times at the final cell plate volume of 135 μl, and then used in this test. In this Experimental Example, therefore, FDSS6000 (Hamamatsu Photonics) was used as an alternative to HTS device.
Specific FDSS6000 measurement conditions are as follows: After recording the reference value of 20 seconds, the change of intracellular calcium concentration which induced by pre-treatment of the drug (the prepared […]) for 75 seconds followed by administration of KCl was measured, in which the percentage (%) inhibition effect of the test drug was determined, through estimating the area of ratio value of 340/380 in the control without treatment of the test drug as 100%. As a reference drug, 10 μM of mibefradil was always used.
For accurate calcium-imagination, the light sources of 4 xenon lamps in FDSS6000 were radiated to make the cells exposed selectively to the excitation wavelength (340 nm and 380 nm) by computer-controlled filter wheel. Data was obtained at interval of each 1.23 second. The emitter fluorescence light inflow through a 515 nm long-pass filter was obtained as an average 340/380 ratio value for each well in the 96-wells by a cooled CCD camera and digital fluorescence analyzer in the device. All image data and analysis were obtained by using a FDSS6000-exclusive program provided by Hamamatsu Photonics, as described above.

The next test has as its target T1, TREK-1 channel (Rattus norvegicus, UniProt Q920B6).
T1 construct: expressed in transfected cells; host or cells: COS7 (Korean Cell Line Bank), transient transfection with Effectene
T1 sequence (Q920B6 1-426): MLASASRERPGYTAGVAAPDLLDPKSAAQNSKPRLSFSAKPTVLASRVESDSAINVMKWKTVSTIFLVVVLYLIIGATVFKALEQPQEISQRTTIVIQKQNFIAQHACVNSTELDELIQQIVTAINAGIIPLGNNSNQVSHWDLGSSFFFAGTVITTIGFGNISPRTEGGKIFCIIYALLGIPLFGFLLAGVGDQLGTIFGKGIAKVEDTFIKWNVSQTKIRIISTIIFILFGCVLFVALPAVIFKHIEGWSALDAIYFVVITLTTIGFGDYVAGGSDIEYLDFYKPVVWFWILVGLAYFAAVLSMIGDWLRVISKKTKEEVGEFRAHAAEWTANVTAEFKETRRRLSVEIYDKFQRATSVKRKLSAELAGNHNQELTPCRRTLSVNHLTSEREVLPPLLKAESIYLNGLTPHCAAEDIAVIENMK
As to the kind of experiment: Assay for TREK channel inhibition activity (whole cell patch clamp recording, COS7 cell transfected with GFP-rTREK-1). The following applies: COS7 cells, GFP-rTREK-1, whole-cell patch clamp; for inhibition at 101 µM: COS-7, Table 3 (value ± spread), 101 μM [sic], read-out: block % at 101 μM; for inhibition at 10 µM: COS-7, Table 2, read-out: block % at 10 μM. The test is classed as cell-based. The procedure:
The inhibition activity of the compound of the present invention against TREK-1 channel was measured by measuring the physiological activity by whole cell patch clamp recording.
COS7 cell (obtained from Korean Cell Line Bank (KCLB)) was transfected with GFP-rTREK-1 gene (accession number: AY727922) using an Effectene transfection reagent (Qiagen), and cultured for 24 hours in an incubator at 37° C. As a culture medium, Dulbecco's modified Eagle's medium (DMEM, GIBCO products from Invitrogen) containing 10% by weight of fetal bovine serum (FBS) and 1% by weight of penicillin/streptomycin (5000 unit/ml) was used. The cells thus prepared were adhered on a cover glass, which was placed on a chamber, and then a recording solution (150 mM NaCl, 10 mM HEPES, 10 mM KCl, 2 mM CaCl2, 5.5 mM D-Glucose, all reagents were purchased from Sigma) was applied. A glass microelectrode was filled with an intracellular solution prepared with the composition of 150 mM KCl, 5 mM EGTA, 10 mM HEPES, 0.5 mM CaCl2, 1 mM MgCl2, 4 mM Mg-ATP, and 0.3 mM Na-GTP (all reagents were purchased from Sigma), followed by whole-cell patch clamp recording. The voltage was fixed at −70 mV using a Digidata 1322A data acquisition system (Molecular Devices) and an Axopatch 200A amplifier (Axon Instruments), and the current generated by applying a voltage ramp from −100 mV to +100 mV for 1 second was measured using a Clampex9.2 program. A difference between the current values measured at +100 mV and −100 mV was defined as a current in the above experiment. The currents before and after blocker treatment were measured so as to determine the inhibition activity.
Block %=100−(current after blocker treatment/current before blocker treatment)*100
(In general: In patch-clamp work, channel activity is measured electrically.)

α1G T-type calcium channel, sequence (O43497 whole entry): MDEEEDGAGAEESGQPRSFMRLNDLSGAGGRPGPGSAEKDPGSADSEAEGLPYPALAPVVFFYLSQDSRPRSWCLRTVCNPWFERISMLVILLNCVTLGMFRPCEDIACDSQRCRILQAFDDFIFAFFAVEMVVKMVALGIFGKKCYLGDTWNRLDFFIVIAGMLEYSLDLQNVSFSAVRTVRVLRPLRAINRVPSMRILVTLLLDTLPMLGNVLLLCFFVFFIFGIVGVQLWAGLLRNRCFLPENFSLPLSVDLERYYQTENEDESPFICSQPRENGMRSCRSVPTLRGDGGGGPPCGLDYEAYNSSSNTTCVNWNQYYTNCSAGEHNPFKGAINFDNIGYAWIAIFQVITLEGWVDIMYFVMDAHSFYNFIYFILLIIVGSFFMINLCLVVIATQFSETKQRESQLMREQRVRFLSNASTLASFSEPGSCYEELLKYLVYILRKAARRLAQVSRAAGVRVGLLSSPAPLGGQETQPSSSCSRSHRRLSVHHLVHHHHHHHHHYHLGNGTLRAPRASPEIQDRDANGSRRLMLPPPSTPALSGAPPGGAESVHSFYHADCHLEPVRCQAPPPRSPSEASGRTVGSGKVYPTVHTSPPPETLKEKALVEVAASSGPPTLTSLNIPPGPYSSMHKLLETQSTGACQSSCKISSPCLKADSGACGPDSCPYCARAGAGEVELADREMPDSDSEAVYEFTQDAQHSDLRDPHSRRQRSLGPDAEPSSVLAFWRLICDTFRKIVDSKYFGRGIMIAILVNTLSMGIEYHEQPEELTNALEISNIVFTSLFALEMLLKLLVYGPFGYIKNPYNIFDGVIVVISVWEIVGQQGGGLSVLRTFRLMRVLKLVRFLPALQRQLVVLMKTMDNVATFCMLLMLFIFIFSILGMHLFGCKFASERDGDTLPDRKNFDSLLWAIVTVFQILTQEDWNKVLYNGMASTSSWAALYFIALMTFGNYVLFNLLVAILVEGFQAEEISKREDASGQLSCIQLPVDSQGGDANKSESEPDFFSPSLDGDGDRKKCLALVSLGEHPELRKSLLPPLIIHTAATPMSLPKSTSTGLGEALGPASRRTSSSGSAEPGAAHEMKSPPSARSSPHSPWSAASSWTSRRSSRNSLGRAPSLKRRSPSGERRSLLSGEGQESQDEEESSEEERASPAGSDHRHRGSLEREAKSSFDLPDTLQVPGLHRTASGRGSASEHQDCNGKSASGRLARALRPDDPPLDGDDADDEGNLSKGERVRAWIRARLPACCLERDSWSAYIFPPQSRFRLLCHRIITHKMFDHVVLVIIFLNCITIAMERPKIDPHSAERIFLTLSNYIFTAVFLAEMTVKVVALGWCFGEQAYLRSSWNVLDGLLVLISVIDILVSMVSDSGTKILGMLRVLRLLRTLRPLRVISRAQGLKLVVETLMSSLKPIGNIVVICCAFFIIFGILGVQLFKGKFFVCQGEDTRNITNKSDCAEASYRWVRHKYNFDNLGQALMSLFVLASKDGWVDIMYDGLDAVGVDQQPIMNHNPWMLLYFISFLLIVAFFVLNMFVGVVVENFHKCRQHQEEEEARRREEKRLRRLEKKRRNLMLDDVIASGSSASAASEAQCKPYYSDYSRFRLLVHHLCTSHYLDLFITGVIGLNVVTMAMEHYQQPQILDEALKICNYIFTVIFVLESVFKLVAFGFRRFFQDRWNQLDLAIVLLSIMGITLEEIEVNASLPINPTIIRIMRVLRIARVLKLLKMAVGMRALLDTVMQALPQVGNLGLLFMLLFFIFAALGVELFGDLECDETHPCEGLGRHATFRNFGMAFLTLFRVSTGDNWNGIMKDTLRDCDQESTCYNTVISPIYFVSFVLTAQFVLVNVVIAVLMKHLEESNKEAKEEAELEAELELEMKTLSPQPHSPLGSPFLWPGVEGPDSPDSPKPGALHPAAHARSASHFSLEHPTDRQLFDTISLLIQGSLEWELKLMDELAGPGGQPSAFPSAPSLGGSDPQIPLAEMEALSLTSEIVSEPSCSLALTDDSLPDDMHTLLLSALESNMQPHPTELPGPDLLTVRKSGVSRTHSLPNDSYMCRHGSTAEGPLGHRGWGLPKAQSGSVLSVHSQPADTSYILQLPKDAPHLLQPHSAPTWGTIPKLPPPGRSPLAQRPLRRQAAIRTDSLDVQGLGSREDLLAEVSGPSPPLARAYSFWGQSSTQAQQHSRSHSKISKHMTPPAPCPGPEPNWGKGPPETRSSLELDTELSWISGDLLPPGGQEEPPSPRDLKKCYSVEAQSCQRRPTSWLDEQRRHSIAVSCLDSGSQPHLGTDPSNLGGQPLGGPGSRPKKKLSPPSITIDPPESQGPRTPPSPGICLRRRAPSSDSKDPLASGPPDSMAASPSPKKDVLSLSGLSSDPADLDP

For `O[C@H](COc1ccc(F)cc1)CN1CCC(N2CCOCC2)CC1` [KKRE10157, (S)-1-(4-fluorophenoxy)-3-(4-morpholinopiperidin-1-yl)propan-2-ol], the inhibition in test [1] amounted to 9.33%. Moreover, at TREK-1 channel, the inhibition at 101 µM was found to be 29.6 ± 3.71%.
Consider `O[C@@H](COc1ccc(F)cc1)CN1CCC(N2CCCCC2)CC1` [KKRE10158, (R)-1-(1,4′-bipiperidin-1′-yl)-3-(4-fluorophenoxy)propan-2-ol], for which the inhibition in test [1] was 6.65%. At TREK-1 channel, the inhibition at 101 µM amounted to 16.8 ± 2.73%.
Taken in the same sequence, the figures for `O[C@H](COc1ccc(F)cc1)CN1CCC(N2CCCCC2)CC1` [KKRE10159, (S)-1-(1,4′-bipiperidin-1′-yl)-3-(4-fluorophenoxy)propan-2-ol] were 6.37% and 13.4 ± 5.78%.
For the compound `O[C@@H](COc1ccc(F)cc1)CN1CCC(N2CCCC2)CC1` [KKRE10160, (R)-1-(4-fluorophenoxy)-3-(4-(pyrrolidin-1-yl)piperidin-1-yl)propan-2-ol], the inhibition in test [1] stood at 0.31%. The inhibition at 101 µM at TREK-1 channel was 4.13 ± 4.43%.
The corresponding values for `O[C@H](COc1ccc(F)cc1)CN1CCC(N2CCCC2)CC1` [KKRE10161, (S)-1-(4-fluorophenoxy)-3-(4-(pyrrolidin-1-yl)piperidin-1-yl)propan-2-ol] are -0.06% and 8.28 ± 3.49%.
For the compound `O=C(CN1CCN(C[C@H](O)COc2ccc(C(F)(F)F)cc2)CC1)NCc1ccc(C(F)(F)F)cc1` [KKRE10173, (S)-2-(4-(2-hydroxy-3-(4-(trifluoromethyl)phenoxy)propyl)piperazin-1-yl)-N-(4-(trifluoromethyl)benzyl)acetamide], in test [1], the inhibition worked out at 53.6%. On TREK-1 channel, the inhibition at 10 µM is 63.2% and the inhibition at 101 µM came out at 63.2 ± 7.6%.
Turning to `Cc1ccc(CNC(=O)CN2CCN(C[C@H](O)COc3ccc(C(F)(F)F)cc3)CC2)cc1` [KKRE10174, (S)-2-(4-(2-hydroxy-3-(4-(trifluoromethyl)phenoxy)propyl)piperazin-1-yl)-N-(4-methylbenzyl)acetamide], in test [1], the inhibition was 48.8%. For the same compound, at TREK-1 channel, the inhibition at 10 µM was determined as 37.6% and the inhibition at 101 µM stood at 37.6 ± 5.55%. Moreover, at TREK-1 channel (Table 2), the “block % at 100 μM” value is listed as 88.17%. Moreover, on TREK-1 channel (Table 3 (value ± spread)), the “block % at 100 μM” value worked out at 88.17 ± 4.60%.
In the case of `O=C(CN1CCN(C[C@H](O)COc2ccc(C(F)(F)F)cc2)CC1)NC1CCCCC1` [KKRE10175, (S)-N-cyclohexyl-2-(4-(2-hydroxy-3-(4-(trifluoromethyl)phenoxy)propyl)piperazin-1-yl)acetamide], in test [1], the inhibition stood at 43.1%. At TREK-1 channel, the inhibition at 10 µM was 18.1% and the inhibition at 101 µM was 18.1 ± 6.92%. The “block % at 100 μM” value on TREK-1 channel (Table 2) is listed as 74.61%. Also, the “block % at 100 μM” value at TREK-1 channel (Table 3 (value ± spread)) was 74.61 ± 2.15%.
`O=C(CN1CCN(C[C@@H](O)COc2ccc(C(F)(F)F)cc2)CC1)NC1CCCCC1` [KKRE10176, (R)-N-cyclohexyl-2-(4-(2-hydroxy-3-(4-(trifluoromethyl)phenoxy)propyl)piperazin-1-yl)acetamide]: the inhibition in test [1] was 43.9%. For the same compound, at TREK-1 channel, the inhibition at 101 µM came to 33.5 ± 5.67%.
Taken in the same sequence, the figures for `O[C@@H](COc1ccc(F)cc1)CN1CCC(F)(F)CC1` [KKRE10178, (R)-1-(4,4-difluoropiperidin-1-yl)-3-(4-fluorophenoxy)propan-2-ol] were 37.6% and 66 ± 4.05%.
In the case of `O[C@@H](COc1ccc(F)cc1)CN1CCC(O)(c2ccccc2)CC1` [KKRE10179], the inhibition in test [1] was 16%. Also, the inhibition at 101 µM at TREK-1 channel turned out to be 19.9 ± 4.25%.
For `O[C@H](COc1ccc(F)cc1)CN1CCC(F)(F)CC1` [KKRE10180, (S)-1-(4,4-difluoropiperidin-1-yl)-3-(4-fluorophenoxy)propan-2-ol], the inhibition in test [1] was found to be 17.3%. The inhibition at 101 µM on TREK-1 channel came to 23.3 ± 10%.
`O[C@H](COc1ccc(F)cc1)CN1CCC(O)(c2ccccc2)CC1` [KKRE10181]: in test [1], the inhibition is 35.4%. Moreover, the inhibition at 101 µM at TREK-1 channel is 53.9 ± 1.62%.
Take `O[C@@H](COc1ccc(C(F)(F)F)cc1)CN1CCC(N2CCOCC2)CC1` [KKRE10182, (R)-1-(4-morpholinopiperidin-1-yl)-3-(4-(trifluoromethyl)phenoxy)propan-2-ol]: in test [1], the inhibition worked out at 12.5%. For the same compound, the inhibition at 101 µM on TREK-1 channel worked out at 46.6 ± 6.25%.
Turning to `O[C@@H](COc1ccc(C(F)(F)F)cc1)CN1CCC(N2CCCCC2)CC1` [KKRE10183, (R)-1-(1,4′-bipiperidin-1′-yl)-3-(4-(trifluoromethyl)phenoxy)propan-2-ol], the inhibition in test [1] worked out at 12%. Also, the inhibition at 101 µM at TREK-1 channel is 36.4 ± 7.38%.
Take `O[C@@H](COc1ccc(C(F)(F)F)cc1)CN1CCC(N2CCCC2)CC1` [KKRE10184, (R)-1-(4-(pyrrolidin-1-yl)piperidin-1-yl)-3-(4-(trifluoromethyl)phenoxy)propan-2-ol]: the inhibition in test [1] stood at 9.54%. At TREK-1 channel, the inhibition at 101 µM turned out to be 37.4 ± 6.98%.
For `O[C@@H](COc1ccc(C(F)(F)F)cc1)CN1CCC(F)(F)CC1` [KKRE10185, (R)-1-(4,4-difluoropiperidin-1-yl)-3-(4-(trifluoromethyl)phenoxy)propan-2-ol], the inhibition in test [1] amounted to 14.8%. Further, the inhibition at 101 µM on TREK-1 channel came to 60.8 ± 7.47%.
With `O[C@@H](COc1ccc(C(F)(F)F)cc1)CN1CCC(O)(c2ccccc2)CC1` [KKRE10186, (R)-1-(2-hydroxy-3-(4-(trifluoromethyl)phenoxy)propyl)-4-phenylpiperidin-4-ol], the inhibition in test [1] was 46.1%. In addition, the inhibition at 101 µM on TREK-1 channel amounted to 54 ± 12.1%.
In the case of `O[C@H](COc1ccc(C(F)(F)F)cc1)CN1CCC(N2CCOCC2)CC1` [KKRE10187, (S)-1-(4-morpholinopiperidin-1-yl)-3-(4-(trifluoromethyl)phenoxy)propan-2-ol], in test [1], the inhibition turned out to be 10.1%. For the same compound, the inhibition at 101 µM at TREK-1 channel came to 49.2 ± 6.75%.
Take `O[C@H](COc1ccc(C(F)(F)F)cc1)CN1CCC(N2CCCCC2)CC1` [KKRE10188, (S)-1-(1,4′-bipiperidin-1′-yl)-3-(4-(trifluoromethyl)phenoxy)propan-2-ol]: the inhibition in test [1] stood at 5.73%. The inhibition at 101 µM at TREK-1 channel came out at 55.6 ± 0.23%.
